{"source": "ChEMBL document CHEMBL1641471", "about": "“Psammaplysin H, a new antimalarial bromotyrosine alkaloid from a marine sponge of the genus Pseudoceratina” (Bioorg Med Chem Lett, 2011)", "key": {"[1]": {"test": "Selectivity index, ratio of IC50 for chloroquine-sensitive Plasmodium falciparum 3D7 to IC50 for human HepG2 cells"}, "HepG2": {"tested_on": "HepG2", "test": "Cytotoxicity against human HepG2 cells after 72 hrs by Alamar Blue assay", "assay_type": "cell-based", "conditions": "HepG2, 72 h"}, "Plasmodium falciparum": {"tested_on": "Plasmodium falciparum", "test": "Antimalarial activity against chloroquine-sensitive Plasmodium falciparum 3D7 ring-stage infected in human erythrocytes after 48 hrs by [3H]hypoxanthine assay", "assay_type": "functional, organism-based"}, "HEK293": {"tested_on": "HEK293", "test": "Cytotoxicity against HEK293 cells after 72 hrs by Alamar Blue assay", "assay_type": "cell-based", "conditions": "Homo sapiens, HEK293, 72 h"}, "[2]": {"test": "Selectivity index, ratio of IC50 for chloroquine-sensitive Plasmodium falciparum 3D7 to IC50 for HEK293 cells"}, "[3]": {"test": "Cytotoxicity against HEK293 cells assay at 40 uM after 72 hrs by Alamar Blue assay", "assay_type": "cell-based", "conditions": "human, read-out: INH"}, "[4]": {"test": "Cytotoxicity against human HepG2 cells assay at 40 uM after 72 hrs by Alamar Blue assay", "assay_type": "cell-based", "conditions": "read-out: INH"}}}
{"compound": "COC1C(Br)=CO[C@@]2(C=C1Br)ON=C(C(=O)NCCCOc1c(Br)cc(CCN(C)C(N)=O)cc1Br)[C@@H]2O", "note": "(some centres undefined) [PSAMMAPLYSINS G]", "values": [{"measurement": "Ratio IC50", "setting": "[1]", "value": 3}, {"measurement": "IC50", "setting": "HepG2", "value": 17.4, "unit": "µM"}, {"measurement": "IC50", "setting": "Plasmodium falciparum", "value": 5.22, "unit": "µM"}, {"measurement": "IC50", "setting": "HEK293", "value": 18.7, "unit": "µM"}, {"measurement": "Ratio IC50", "setting": "[2]", "value": 3}]}
{"compound": "COC1C(Br)=CO[C@@]2(C=C1Br)ON=C(C(=O)NCCCOc1c(Br)cc(CC[N+](C)(C)C)cc1Br)[C@@H]2O.O=C([O-])C(F)(F)F", "note": "(some centres undefined) [PSAMMAPLYSIN H]", "values": [{"measurement": "Ratio IC50", "setting": "[1]", "value": ">97"}, {"measurement": "IC50", "setting": "HepG2", "value": "> 40", "unit": "µM"}, {"measurement": "IC50", "setting": "Plasmodium falciparum", "value": 0.41, "unit": "µM"}, {"measurement": "IC50", "setting": "HEK293", "value": "> 40", "unit": "µM"}, {"measurement": "cytotoxicity at 72 h, 40 µM", "setting": "[3]", "value": 35, "unit": "%"}, {"measurement": "Ratio IC50", "setting": "[2]", "value": ">97"}, {"measurement": "cytotoxicity at 72 h, 40 µM", "setting": "[4]", "value": 33, "unit": "%"}]}
{"compound": "CNCCc1cc(Br)c(OCCCNC(=O)C2=NO[C@@]3(C=C(Br)C(OC)C(Br)=CO3)[C@H]2O)c(Br)c1", "note": "(some centres undefined) [PSAMMAPLYSINS F]", "values": [{"measurement": "Ratio IC50", "setting": "[1]", "value": 2}, {"measurement": "IC50", "setting": "HepG2", "value": 3.7, "unit": "µM"}, {"measurement": "IC50", "setting": "Plasmodium falciparum", "value": 1.92, "unit": "µM"}, {"measurement": "IC50", "setting": "HEK293", "value": 10.9, "unit": "µM"}, {"measurement": "Ratio IC50", "setting": "[2]", "value": 5}]}
{"compound": "CCN(CC)CCCC(C)Nc1ccnc2cc(Cl)ccc12", "note": "(centres undefined) [CHLOROQUINE]", "values": [{"measurement": "IC50", "setting": "HepG2", "value": 12.9, "unit": "µM"}, {"measurement": "IC50", "setting": "HEK293", "value": 48, "unit": "µM"}]}
